{
  "source": "patent US8399426B2",
  "about": "“Method for treating breast cancer using adenine nucleotide translocator 2 (ANT2) siRNA or ANT2 shRNA” (Bioinfra Inc., priority 2006, dated 2013)",
  "key": {"MDA-MB-231 cell line": {"test_system": "MDA-MB-231 cell line", "experiment": "Sensitivity to doxorubicin, CCK8 assay, MDA-MB-231", "assay_type": "cell-based, human", "details": "MDA-MB-231, doxorubicin 10 μM to zero, 10 hrs, no ANT2 shRNA", "protocol": "The MDA-MB-231 cell line which has a predominant proportion of progenitor cells (CD44+/CD24−) was treated with 10-fold serial dilutions of doxorubicin, a widely used anticancer agent starting from 10 μM to zero, followed by incubation (10 hrs). The assay was conducted in the same manner as in Example 6."}, "[1]": {"test_system": "breast cancer cell line MCF7", "experiment": "Sensitivity to doxorubicin, CCK8 assay, MCF7", "assay_type": "cell-based", "details": "MCF7 progenitor cells (CD44+/CD24−) vs mixed population", "protocol": "The breast cancer cell line MCF7, which has a minor proportion of progenitor cells (CD44+/CD24−), was treated with various concentrations of doxorubicin, widely used for the treatment of breast cancer, after which apoptosis was quantitatively analyzed using a CCK8 assay."}, "[2]": {"test_system": "breast cancer cells (MDA-MB-231)", "experiment": "Direct apoptosis, PI and Annexin V staining, FACS", "assay_type": "cell-based, human", "details": "48 hours from transfection", "protocol": "To investigate whether apoptosis could induced directly by ANT2 siRNA, the present inventors performed staining with propidium iodide (PI) and Annexin V.\nParticularly, the cells were transfected respectively with ANT2 siRNA and scrambled siRNA, followed by culture for 24-48 hours. The cells were washed with PBS, to which PI and Annexin V were added. After reaction at room temperature for 15 minutes, […] was measured by FACS."}, "MCF7 cells": {"test_system": "MCF7 cells", "experiment": "Sensitivity to TRAIL, CCK8 assay, MCF7", "assay_type": "cell-based", "protocol": "(§1) As breast cancer cell lines in this experiment, MCF7 resistant to TRAIL, and MDA-MB-231 highly sensitive to TRAIL were employed. MCF7 and MDA-MB-231 were treated with TRAIL at various concentrations after which cell death was analyzed with a CCK8 reagent. The CCK8 assay is a cell viability assay. Specifically, 100 μL of a cell suspension was placed onto each well (1×10^4 cells/well). The cells were treated with 10-fold serial dilutions of TRAIL starting from 1 μg/mL to zero, followed by incubation for 12 hrs. After the addition of 10 μL of the CCK8 reagent, the cells were incubated for a proper time (4 hours) in a CO2 incubator and measured for absorbance at 450 nm to analyze cell death.\nHowever, the introduction of ANT2 shRNA into MCF7 cells induced apoptosis (−25%). […] As for a negative control, it was PBS for TRAIL, and sc shRNA (scrambled shRNA) for ANT2 shRNA.\nAfter being treated with TRAIL alone, ANT2 shRNA alone, and TRAIL and ANT2 shRNA in combination, MCF7 cells, resistant to TRAIL, were examined for apoptosis, and the results are shown in FIG. 24C.\nFurthermore, treatment with the p53 inhibitor (pifithrin-alpha) suppressed the up-regulation of TRAIL-mediated apoptosis by ANT2 shRNA, which confirmed that the introduction of ANT2 shRNA induced the expression and activity of p53, leading to an increase in sensitivity to TRAIL. The cell death was quantified using a CCK8 assay, with the use of PBS as a negative control for the p53 inhibitor (FIG. 28)."}, "DR4, DR5, DcR1 and DcR2": {"test_system": "DR4, DR5, DcR1 and DcR2", "experiment": "Expression of TRAIL receptors by Western blots, MCF7", "assay_type": "cell-based", "details": "MCF7, pre-treatment with p53 inhibitor", "protocol": "The breast cancer cell lines MCF7 and MDA-MB-231, which are different in sensitivity to TRAIL from each other, were analyzed for expression levels of the receptors DR4, DR5, DcR1, and DcR2, all binding to TRAIL, by Western blots.\nUpon the introduction of ANT2 shRNA, expression patterns of TRAIL receptors were examined, and the results are given in FIG. 26B. […] In T47D and BT474 cell lines, which are known to have TRAIL resistance, the same effects as in MCF7 were observed. That is, the introduction of ANT2 shRNA increased the expression of DR4 and DR5, but decreased the expression of DcR1 and DcR2 (FIG. 26C).\nIn addition, an experiment was performed to reconfirm that the introduction of ANT2 shRNA induces the expression and activity of p53, thus up-regulating the TRAIL receptors DR4 and DR5."}, "MDA-MB-231 cells": {"test_system": "MDA-MB-231 cells", "experiment": "Sensitivity to TRAIL, CCK8 assay, MDA-MB-231", "assay_type": "cell-based, human", "details": "MDA-MB-231, TRAIL at various concentrations, 12 hrs", "protocol": "as §1"}, "[3]": {"test_system": "breast cancer cell lines T47D and BT474", "experiment": "Sensitivity to TRAIL, CCK8 assay, T47D and BT474", "assay_type": "cell-based", "details": "T47D and BT474, TRAIL alone", "from_the_text": "The same results as MCF7 were detected from the breast cancer cell lines T47D and BT474, both known to be resistant to TRAIL (FIG. 25A). For this, a CCK8 assay was employed to quantify the apoptosis."}, "[4]": {"test_system": "breast cancer cell lines T47D and BT474", "experiment": "Western blots of apoptosis-induced proteins (PARP, caspase-8/9/7, Bid, cytochrome C)", "assay_type": "cell-based", "details": "TRAIL alone", "from_the_text": "The increased sensitivity to TRAIL was reconfirmed to be attributed to the knockdown of ANT2 by shRNA. […] The empty vector pcDNA was introduced as a negative control for pcDNA-ANT2. When ANT2 shRNA increased sensitivity to TRAIL to induce apoptosis, the concurrent events of intracellular proteins (cleavage of PARP protein, cleavage of caspase-8/9/7, and truncation of Bid proteins) were detected by Western blots.\nBecause mitochondria play an important role in the regulation of apoptosis, cytochrome C, which is released from mitochondria to cytoplasm, was quantitatively monitored upon the ANT2 shRNA-triggered, TRAIL-mediated apoptosis. The mitochondrial protein COX IV was used as a loading control to guarantee the use of mitochondrial proteins in the same amount. No changes in the pattern of apoptosis-induced proteins were observed when TRAIL was used alone. […] These changes of intracellular protein patterns confirmed that ANT2 shRNA enhanced TRAIL-mediated apoptosis."}, "MCF7 tumor": {"test_system": "MCF7 tumor", "experiment": "In vivo tumor growth of MCF7 transplanted into nude mice; RT-PCR of TRAIL receptors in tumors", "parameters": "species or system Balb/c nude mice", "details": "TRAIL alone, 10 mg/kg intraperitoneally, three treatments over 45 days", "protocol": "The breast cancer cell line MCF7 resistant to TRAIL was transplanted into immunedeficient Balb/c nude mice. When a tumor grew to a volume of 100 mm^3, they were treated with ANT2 shRNA and TRAIL. In this regard, TRAIL was intraperitoneally injected (10 mg/kg) while ANT2 shRNA was directly injected into the tumor (100 μg; supplemented 200 μl Lipofectamine™2000). At this time, Lipofectamine™2000 was used to deliver ANT2 shRNA into tumor cells. After three treatments over 45 days, the size of tumor was monitored. A same volume of PBS and sc shRNA was used as respective negative controls for TRAIL and […]. On 45th day, the animal models were subjected to euthanasia and the tumors were excised."}},
  "data": [
    {"molecule": "COc1cccc2c1C(=O)c1c(O)c3c(c(O)c1C2=O)C[C@@](O)(C(=O)CO)C[C@@H]3O[C@H]1C[C@H](N)[C@H](O)[C@H](C)O1", "note": "[doxorubicin]", "values": [
      {"measurement": "sensitivity to doxorubicin", "setting": "MDA-MB-231 cell line", "result": "neither progenitor cells (CD44+/CD24−) nor the non-progenitor cells were sensitive"},
      {"measurement": "sensitivity to doxorubicin", "setting": "[1]", "result": "less sensitive"}
    ]},
    {"molecule": "ANT2 siRNA-2: ANT2 siRNA for comparison, SEQ ID NO: 14, 5′-CUGACAUCAUGUACACAGG-3′ (listed as RNA, chemistry not given here)", "values": [
      {"measurement": "apoptosis, comparison among ANT2 siRNA, ANT2 siRNA-2 and ANT2 siRNA-3", "setting": "[2]", "result": "consistent"}
    ]},
    {"molecule": "ANT2 siRNA-3: ANT2 siRNA for comparison, SEQ ID NO: 15, 5′-GAUUGCUCGUGAUGAAGGA-3′ (listed as RNA, chemistry not given here)", "values": [
      {"measurement": "apoptosis, comparison among ANT2 siRNA, ANT2 siRNA-2 and ANT2 siRNA-3", "setting": "[2]", "result": "consistent"}
    ]},
    {"molecule": "Cc1ccc(C(=O)Cn2c3c(sc2=N)CCCC3)cc1", "note": "[pifithrin-alpha, reference compound]", "values": [
      {"measurement": "up-regulation of TRAIL-mediated apoptosis by ANT2 shRNA", "setting": "MCF7 cells; MCF7, treatment with p53 inhibitor, CCK8", "result": "suppressed"},
      {"measurement": "up-regulation of DR4 and DR5 by ANT2 shRNA", "setting": "DR4, DR5, DcR1 and DcR2", "result": "suppressed"}
    ]},
    {"molecule": "TRAIL: TRAIL/apo2 ligand, a member of tumor necrosis factor, can selectively kill cancer cells (protein, UniProt P50591 1-281, looked up) Tumor necrosis factor ligand …: MAMMEVQGGPSLGQTCVLIVIFTVLLQSLCVAVTYVYFTNELKQMQDKYSKSGIACFLKEDDSYWDPNDEESMNSPCWQVKWQLRQLVRKMILRTSEETISTVQEKQQNISPLVRERGPQRVAAHITGTRGRSNTLSSPNSKNEKALGRKINSWESSRSGHSFLSNLHLRNGELVIHEKGFYYIYSQTYFRFQEEIKENTKNDKQMVQYIYKYTSYPDPILLMKSARNSCWSKDAEYGLYSIYQGGIFELKENDRIFVSVTNEHLIDMDHEASFFGAFLVG", "values": [
      {"measurement": "apoptosis", "setting": "MCF7 cells; MCF7, TRAIL 100 ng/mL", "result": "not induced to undergo apoptosis"},
      {"measurement": "TRAIL-mediated apoptosis", "setting": "MCF7 cells; MCF7, TRAIL at various concentrations, 12 hrs", "result": "did not work"},
      {"measurement": "TRAIL-mediated apoptosis", "setting": "MDA-MB-231 cells", "result": "induced"},
      {"measurement": "response to TRAIL", "setting": "[3]", "result": "resistant"},
      {"measurement": "changes in the pattern of apoptosis-induced proteins", "setting": "[4]", "result": "No changes"},
      {"measurement": "tumor growth", "setting": "MCF7 tumor", "result": "no significant influences"}
    ]}
  ]
}
